# Experimental data as given in patent publication US20240300886A1, “ARYLCYCLOHEXYLAMINE DERIVATIVES AND THEIR USE IN THE TREATMENT OF PSYCHIATRIC DISORDERS” (GILGAMESH PHARMACEUTICALS, INC., priority 2021, published 2024).
# Legend:
# [1] = Oral bioavailability in mice, Method A (plasma and brain PK); assay type: in vivo, CD-1 mice; details: for half-life / Cmax / AUC(0-inf): male; for F: 10 mg/kg
# Description: Animals. Male CD-1 mice were used in these studies. Animals were randomly assigned to treatment groups and were fasted for 4 h before dosing.
# (§1) Drugs. Test compounds were dissolved in normal saline and administered intravenously (iv) or orally (po) at a dose of 10 mg/kg (calculated based on freebase) and at a volume of 5 mL/kg body weight. Compounds were tested as the racemates or pure enantiomers, as indicated.
# Sample Collection and Bioanalysis. Blood samples were collected under 2,2,2-tribromoethanol anesthesia (150 mg/kg, ip) from the orbital sinus at 0.083, 0.25, 0.5, 1, 2, 4, 8 and 24 h (4 animals per time point) into microcontainers containing K2EDTA. Immediately after collection of blood, mice were euthanized by cervical dislocation and brain samples were collected at the same time points. All samples were immediately processed, flash-frozen, and stored at −70° C. until subsequent analysis. Plasma samples were separated by centrifugation of is whole blood and aliquots (50 μL) were mixed with 200 μL of internal standard solution (400 ng/mL in 1:1 v/v CH3CN:MeOH). After mixing by pipetting and centrifuging for 4 min at 6,000 rpm, 0.5 μL of each supernatant was analyzed for drug using a fit-for-purpose liquid chromatography-tandem mass spectrometry (LC-MS/MS) method, with authentic samples of each analyte used for calibration and identification. Brain samples (weight 100 mg±1 mg) were dispersed in 500 μL of internal standard solution (400 ng/mL in 4:1 v/v MeOH:water) using zirconium oxide beads (115 mg±5 mg) in The Bullet Blender® homogenizer for 30 s at speed 8. After homogenization, the samples were centrifuged for 4 min at 14,000 rpm and 0.5 μL of each supernatant was analyzed for drug using a fit-for-purpose LC-MS/MS method, with authentic samples of each analyte used for calibration and identification.
# (§2) Data Analysis. The drug concentrations of samples below the lower limit of quantitation (LLOQ) were designated as zero. Pharmacokinetic data analysis was performed using noncompartmental, bolus injection or extravascular input analysis models in WinNonlin 5.2 (PharSight). Data points below LLOQ were presented as missing to improve validity of tin calculations.
# [2] = Oral bioavailability in rats, Method A (plasma PK); assay type: in vivo, Sprague Dawley rats; details: rat plasma
# Description: Animals. Male Sprague Dawley rats were used in these studies. Animals were randomly assigned to treatment groups and were fasted for 4 h before dosing.
# as §1
# Sample Collection and Bioanalysis. Blood samples were collected under 2,2,2-tribromoethanol anesthesia (150 mg/kg, ip) from the orbital sinus at 0.083, 0.25, 0.5, 1, 2, 4, 8 and 24 h (4 animals per time point) into microcontainers containing K2EDTA. Immediately after collection of blood, rats were euthanized by […]. All samples were immediately processed, flash-frozen, and stored at −70° C. until subsequent analysis. Plasma samples were separated by centrifugation of whole blood and aliquots (50 μL) were mixed with 200 μL of internal standard solution (400 ng/mL in 1:1 v/v CH3CN:MeOH). After mixing by pipetting and centrifuging for 4 min at 6,000 rpm, 0.5 μL of each supernatant was analyzed for drug using a fit-for-purpose liquid chromatography-tandem mass spectrometry (LC-MS/MS) method, with authentic samples of each analyte used for calibration and identification.
# as §2, with “t1/2” for “tin”
compound,measurement,setting,value
"CNC1(c2ccccc2Cl)CCCCC1=O (racemic) [racemic ketamine, ketamine]",half-life,"[1]; CD-1, mouse brain, 10 mg/kg iv, read-out: t1/2 (iv)",8.66 min
same,Cmax,"[1]; CD-1, mouse brain, 10 mg/kg po",521 ng/g
same,half-life,"[1]; CD-1, mouse brain, 10 mg/kg po, read-out: t1/2 (po)",12.2 min
same,AUC(0-inf),"[1]; CD-1, mouse plasma, 10 mg/kg iv, read-out: AUC0-inf (iv) (converted)",633 ng·h/mL
same,half-life,"[1]; CD-1, mouse plasma, 10 mg/kg iv, read-out: t1/2 (iv)",8.46 min
same,Cmax,"[1]; CD-1, mouse plasma, 10 mg/kg po",253 ng/mL
same,AUC(0-inf),"[1]; CD-1, mouse plasma, 10 mg/kg po, read-out: AUC0-inf (po) (converted)",96.8 ng·h/mL
same,half-life,"[1]; CD-1, mouse plasma, 10 mg/kg po, read-out: t1/2 (po)",11.5 min
same,AUC0-inf (iv),"[1]; mouse brain, 10 mg/kg iv","97,000 ng*min/g"
same,AUC0-inf (po),"[1]; mouse brain, 10 mg/kg po","6,030 ng*min/g"
same,F,"[1]; mouse brain, calculated based on brain exposure",6.2%
same,F,[1]; mouse plasma,15%
same,AUC(0-inf),"[2]; male, Sprague Dawley, 10 mg/kg iv, read-out: AUC0-inf (iv) (converted)",1350 ng·h/mL
same,half-life,"[2]; male, Sprague Dawley, 10 mg/kg iv, read-out: t1/2 (iv)",41.6 min
same,Cmax,"[2]; male, Sprague Dawley, 10 mg/kg po",190 ng/mL
same,AUC(0-inf),"[2]; male, Sprague Dawley, 10 mg/kg po, read-out: AUC0-inf (po) (converted)",125 ng·h/mL
same,half-life,"[2]; male, Sprague Dawley, 10 mg/kg po, read-out: t1/2 (po)",33.7 min
same,F,[2]; 10 mg/kg,9.07%
